From patent US12595253B2, “Benzamides of pyrazolylamino-pyrimidinyl derivatives, and compositions and methods thereof” (LYNK PHARMACEUTICALS CO. LTD., priority 2019, dated 2026)

Tests used:
[1] = molecular target: T1, CYP2D6 (Homo sapiens, UniProt P10635); assay: CYPs inhibition in pooled human liver microsomes, probe substrate Dextromethorphan; type: in vitro ADME
T1 construct: 0.2 mg/mL human liver microsomes was pre-incubated in 180 μL reaction mixture; from tissue; host or cells: pooled human liver microsomes
Method: (§1) The inhibitory potential of test articles in pooled human liver microsomes was evaluated by the method using a cocktail of CYP substrates. […] For the negative control well, the test articles was replaced with 20 μL reaction buffer. After 10 min of pre-incubation at 37° C., 20 μL 10 mM NADPH cofactor was added to the pre-reaction mixtures. After another 10 min incubation, the reaction was stopped by adding 400 μL of ice cold acetonitrile solution containing tolbutamide and labetalol served as internal standards. The incubation mixtures were centrifuged at 4000×g for 20 min, and then the supernatants were analyzed by LC-MS/MS after dilution. SigmaPlot was applied to plot % control activity versus the test compound concentrations, and for non-linear regression analysis of the data. IC50 values of test articles were determined using 3-parameter logistic equation.

[2] = molecular target: T2, JAK1 (Homo sapiens, UniProt P23458); assay: JAK1 microfluidic kinase assay (Caliper EZ Reader II, FAM labeled peptide substrate); type: biochemical
T2 construct: purchased Carna Biosciences
Method in brief: (§2)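 Activity measured in 50 mM HEPES, 0.01% Brij35, 10 mM MgCl2, 2 mM DTT by microfluidic separation of phosphorylated FAM peptide. Enzyme conditions set for 10% substrate conversion.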

[3] = molecular target: T3, CYP2C9 (Homo sapiens, UniProt P11712); assay: CYPs inhibition in pooled human liver microsomes, probe substrate Diclofenac; type: in vitro ADME
T3 construct: 0.2 mg/mL human liver microsomes was pre-incubated in 180 μL reaction mixture; from tissue; host or cells: pooled human liver microsomes
Method: as §1

[4] = molecular target: T4, CYP2C19 (Homo sapiens, UniProt P33261); assay: CYPs inhibition in pooled human liver microsomes, probe substrate S-mephenytoin; type: in vitro ADME
T4 construct: 0.2 mg/mL human liver microsomes was pre-incubated in 180 μL reaction mixture; from tissue; host or cells: pooled human liver microsomes
Method: as §1

[5] = molecular target: T5, TYK2 (Homo sapiens, UniProt P29597); assay: TYK2 microfluidic kinase assay (Caliper EZ Reader II, FAM labeled peptide substrate); type: biochemical; conditions: IC50 TYK2 ([…]) (1 mM ATP), TYK2 […], 1 mM ATP
T5 construct: purchased Carna Biosciences
Method in brief: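 Kinase activity was measured in 50 mM HEPES, 0.01% Brij35, 10 mM MgCl2, 2 mM DTT with enzyme set for 10% peptide conversion. Compounds (3-fold dilutions from 5 μM top, 1% DMSO) were pre-incubated 10 min at ambient temperature. Reaction times: JAK1 120 min, JAK2 20 min, JAK2V617F 30 min, TYK2 10 min. EDTA stop.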

[6] = molecular target: T6, CYP3A4 (Homo sapiens, UniProt P08684); assay: CYPs inhibition in pooled human liver microsomes, probe substrate Midazolam; type: in vitro ADME
T6 construct: 0.2 mg/mL human liver microsomes was pre-incubated in 180 μL reaction mixture; from tissue; host or cells: pooled human liver microsomes
Method: as §1

[7] = molecular target: T7, JAK2 (Homo sapiens, UniProt O60674); assay: JAK2 microfluidic kinase assay (Caliper EZ Reader II, FAM labeled peptide substrate); type: biochemical
T7 construct: purchased Carna Biosciences
Method in brief: as §2

[8] = molecular target: T8, JAK2V617F (Homo sapiens, UniProt O60674, V617F); assay: JAK2V617F microfluidic kinase assay (Caliper EZ Reader II, FAM labeled peptide substrate); type: biochemical; conditions: JAK2V617F 2.5 nM, 1 mM ATP
T8 construct: purchased Carna Biosciences
Method in brief: as §2

[9] = molecular target: T9, CYP1A2 (Homo sapiens, UniProt P05177); assay: CYPs inhibition in pooled human liver microsomes, probe substrate Phenacetin; type: in vitro ADME
T9 construct: 0.2 mg/mL human liver microsomes was pre-incubated in 180 μL reaction mixture; from tissue; host or cells: pooled human liver microsomes
T9 sequence (P05177 1-516): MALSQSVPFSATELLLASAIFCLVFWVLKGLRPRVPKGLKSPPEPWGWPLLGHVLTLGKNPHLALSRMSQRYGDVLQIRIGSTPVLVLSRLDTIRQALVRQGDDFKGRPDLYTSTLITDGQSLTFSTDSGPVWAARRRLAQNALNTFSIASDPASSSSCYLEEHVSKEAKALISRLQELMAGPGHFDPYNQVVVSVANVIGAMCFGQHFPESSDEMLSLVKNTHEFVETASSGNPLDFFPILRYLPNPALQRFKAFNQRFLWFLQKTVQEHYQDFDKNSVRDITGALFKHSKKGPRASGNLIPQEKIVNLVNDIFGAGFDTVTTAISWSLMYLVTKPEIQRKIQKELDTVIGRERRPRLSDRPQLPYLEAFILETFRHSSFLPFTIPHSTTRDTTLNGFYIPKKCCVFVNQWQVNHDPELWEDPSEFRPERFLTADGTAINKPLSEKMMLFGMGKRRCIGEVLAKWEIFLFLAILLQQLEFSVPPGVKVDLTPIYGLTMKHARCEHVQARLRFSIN
Method: as §1

[10] = Liver microsomes study, Phase I stability (RLM); type: in vitro ADME, rat; conditions: pH 7.4; rat liver microsomes 0.5 mg/mL, 1 μM test article; read-out: RLM Clint
Method in brief: (§3)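 Rat or human liver microsomes were incubated with test article, and reactions started with an NADPH regenerating system. Samples at 0, 10, 30 and 90 minutes were quenched with cold acetonitrile and analyzed by LC/MS/MS. T½ and CLint came from the ln(% remaining) versus time slope, scaled by protein concentration.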

[11] = Liver microsomes study, Phase I stability (HLM); type: in vitro ADME, human; conditions: pH 7.4; human liver microsomes 0.5 mg/mL, 1 μM test article; read-out: HLM Clint
Method in brief: as §3

[12] = IC50 JAK1 (5 nM) (1 m MATP), JAK1 5 nM, 1 mM ATP
[13] = IC50 JAK2 ([…]) (1 mM ATP), 1 mM ATP
[14] = IC50 JAK2 ([…]) (Km ATP), Km ATP

T5 sequence (P29597 whole entry): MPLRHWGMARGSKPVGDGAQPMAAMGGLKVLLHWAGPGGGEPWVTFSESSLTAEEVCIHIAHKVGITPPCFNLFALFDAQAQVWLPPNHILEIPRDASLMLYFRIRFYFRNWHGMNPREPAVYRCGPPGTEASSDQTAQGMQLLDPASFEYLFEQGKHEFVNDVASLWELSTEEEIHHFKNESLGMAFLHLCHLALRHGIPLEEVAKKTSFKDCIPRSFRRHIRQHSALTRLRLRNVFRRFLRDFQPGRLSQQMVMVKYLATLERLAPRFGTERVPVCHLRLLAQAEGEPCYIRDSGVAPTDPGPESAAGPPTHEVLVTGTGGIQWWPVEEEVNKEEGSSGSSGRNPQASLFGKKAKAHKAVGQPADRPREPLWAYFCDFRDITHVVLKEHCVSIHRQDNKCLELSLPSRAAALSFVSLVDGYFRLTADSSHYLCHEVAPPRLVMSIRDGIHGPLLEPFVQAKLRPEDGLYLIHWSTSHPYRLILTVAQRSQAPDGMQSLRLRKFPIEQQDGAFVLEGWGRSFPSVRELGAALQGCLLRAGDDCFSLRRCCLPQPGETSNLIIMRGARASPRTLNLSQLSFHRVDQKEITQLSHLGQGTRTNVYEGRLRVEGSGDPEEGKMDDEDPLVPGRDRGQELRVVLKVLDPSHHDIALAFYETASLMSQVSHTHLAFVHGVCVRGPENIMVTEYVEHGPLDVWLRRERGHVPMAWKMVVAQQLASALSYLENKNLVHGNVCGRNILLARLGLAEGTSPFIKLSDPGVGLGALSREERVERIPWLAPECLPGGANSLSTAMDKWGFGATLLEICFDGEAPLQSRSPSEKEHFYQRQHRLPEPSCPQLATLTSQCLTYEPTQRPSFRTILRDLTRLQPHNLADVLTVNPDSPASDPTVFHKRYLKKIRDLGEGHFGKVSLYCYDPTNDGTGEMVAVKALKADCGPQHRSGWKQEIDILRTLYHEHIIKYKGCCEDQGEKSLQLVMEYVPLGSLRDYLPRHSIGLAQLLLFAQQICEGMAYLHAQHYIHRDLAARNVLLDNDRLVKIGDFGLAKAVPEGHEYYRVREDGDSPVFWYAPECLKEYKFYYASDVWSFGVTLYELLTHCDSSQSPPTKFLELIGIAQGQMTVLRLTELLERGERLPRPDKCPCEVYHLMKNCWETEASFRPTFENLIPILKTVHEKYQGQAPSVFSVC
T1 sequence (P10635 whole entry): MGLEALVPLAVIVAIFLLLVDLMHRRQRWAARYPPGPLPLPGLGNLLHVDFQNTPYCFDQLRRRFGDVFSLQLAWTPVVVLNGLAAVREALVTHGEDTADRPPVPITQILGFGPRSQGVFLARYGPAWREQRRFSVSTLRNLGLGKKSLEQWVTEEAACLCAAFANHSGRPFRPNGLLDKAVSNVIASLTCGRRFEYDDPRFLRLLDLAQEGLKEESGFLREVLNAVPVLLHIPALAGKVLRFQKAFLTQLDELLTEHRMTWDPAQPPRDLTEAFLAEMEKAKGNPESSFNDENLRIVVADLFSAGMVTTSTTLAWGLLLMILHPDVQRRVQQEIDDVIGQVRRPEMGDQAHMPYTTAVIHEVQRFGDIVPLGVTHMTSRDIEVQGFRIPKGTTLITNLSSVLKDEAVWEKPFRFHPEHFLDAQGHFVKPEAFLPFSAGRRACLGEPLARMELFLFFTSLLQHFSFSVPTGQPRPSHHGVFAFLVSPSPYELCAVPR
T2 sequence (P23458 whole entry): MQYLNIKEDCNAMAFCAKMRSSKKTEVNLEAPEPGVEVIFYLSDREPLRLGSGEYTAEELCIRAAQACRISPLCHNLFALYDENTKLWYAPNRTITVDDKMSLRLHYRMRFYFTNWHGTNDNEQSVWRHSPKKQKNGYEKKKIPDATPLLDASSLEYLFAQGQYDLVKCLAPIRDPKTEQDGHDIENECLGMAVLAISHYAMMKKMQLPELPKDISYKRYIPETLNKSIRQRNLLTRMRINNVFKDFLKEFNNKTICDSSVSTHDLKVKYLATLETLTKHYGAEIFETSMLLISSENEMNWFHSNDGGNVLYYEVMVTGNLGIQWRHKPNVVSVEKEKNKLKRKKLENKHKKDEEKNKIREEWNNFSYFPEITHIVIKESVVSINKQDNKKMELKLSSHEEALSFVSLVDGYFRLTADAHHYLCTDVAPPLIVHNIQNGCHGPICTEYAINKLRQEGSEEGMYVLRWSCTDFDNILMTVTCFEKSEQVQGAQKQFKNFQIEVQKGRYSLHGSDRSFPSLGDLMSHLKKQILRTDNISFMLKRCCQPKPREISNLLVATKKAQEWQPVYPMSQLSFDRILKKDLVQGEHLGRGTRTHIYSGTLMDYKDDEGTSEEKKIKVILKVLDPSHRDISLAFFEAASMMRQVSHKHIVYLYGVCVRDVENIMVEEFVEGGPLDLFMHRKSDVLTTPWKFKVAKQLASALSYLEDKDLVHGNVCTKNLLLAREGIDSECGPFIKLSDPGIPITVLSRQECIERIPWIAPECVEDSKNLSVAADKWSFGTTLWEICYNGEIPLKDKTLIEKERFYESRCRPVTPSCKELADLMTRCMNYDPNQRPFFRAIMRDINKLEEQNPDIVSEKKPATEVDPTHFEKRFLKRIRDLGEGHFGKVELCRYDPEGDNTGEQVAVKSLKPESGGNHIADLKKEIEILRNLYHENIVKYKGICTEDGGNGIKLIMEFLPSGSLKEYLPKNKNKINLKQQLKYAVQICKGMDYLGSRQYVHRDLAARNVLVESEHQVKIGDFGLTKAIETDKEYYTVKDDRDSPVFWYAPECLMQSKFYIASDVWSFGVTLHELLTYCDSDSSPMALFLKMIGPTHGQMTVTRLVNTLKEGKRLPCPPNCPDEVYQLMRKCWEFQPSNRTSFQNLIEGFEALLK
T8 sequence (O60674 whole entry V617F): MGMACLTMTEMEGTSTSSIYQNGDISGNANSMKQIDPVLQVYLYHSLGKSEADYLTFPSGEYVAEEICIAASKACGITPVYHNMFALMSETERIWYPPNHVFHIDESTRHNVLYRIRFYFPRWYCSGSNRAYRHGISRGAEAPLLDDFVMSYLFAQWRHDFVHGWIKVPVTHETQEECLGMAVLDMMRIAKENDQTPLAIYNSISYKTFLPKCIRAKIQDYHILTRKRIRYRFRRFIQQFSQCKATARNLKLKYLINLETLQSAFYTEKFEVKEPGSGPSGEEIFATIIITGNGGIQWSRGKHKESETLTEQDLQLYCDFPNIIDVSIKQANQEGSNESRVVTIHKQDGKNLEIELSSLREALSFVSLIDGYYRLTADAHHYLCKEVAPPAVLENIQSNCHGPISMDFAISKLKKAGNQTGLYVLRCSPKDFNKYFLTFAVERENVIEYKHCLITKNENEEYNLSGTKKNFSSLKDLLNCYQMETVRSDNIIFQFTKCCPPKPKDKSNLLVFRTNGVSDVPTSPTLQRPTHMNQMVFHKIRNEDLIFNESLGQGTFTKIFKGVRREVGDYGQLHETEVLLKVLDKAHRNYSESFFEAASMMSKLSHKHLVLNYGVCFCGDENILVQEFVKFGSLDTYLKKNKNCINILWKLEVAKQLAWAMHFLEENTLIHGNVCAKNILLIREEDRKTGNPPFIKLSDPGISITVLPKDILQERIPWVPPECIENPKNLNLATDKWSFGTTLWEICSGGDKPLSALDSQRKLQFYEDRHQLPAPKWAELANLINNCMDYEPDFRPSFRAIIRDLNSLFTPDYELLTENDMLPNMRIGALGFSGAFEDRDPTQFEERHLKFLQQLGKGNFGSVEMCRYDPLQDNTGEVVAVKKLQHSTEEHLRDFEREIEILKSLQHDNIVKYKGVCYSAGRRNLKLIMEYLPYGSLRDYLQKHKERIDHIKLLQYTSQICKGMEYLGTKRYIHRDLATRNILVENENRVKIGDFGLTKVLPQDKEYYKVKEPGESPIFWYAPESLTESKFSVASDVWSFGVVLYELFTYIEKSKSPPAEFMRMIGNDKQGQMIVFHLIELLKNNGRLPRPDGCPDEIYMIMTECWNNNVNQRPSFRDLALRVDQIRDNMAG
T3 sequence (P11712 whole entry): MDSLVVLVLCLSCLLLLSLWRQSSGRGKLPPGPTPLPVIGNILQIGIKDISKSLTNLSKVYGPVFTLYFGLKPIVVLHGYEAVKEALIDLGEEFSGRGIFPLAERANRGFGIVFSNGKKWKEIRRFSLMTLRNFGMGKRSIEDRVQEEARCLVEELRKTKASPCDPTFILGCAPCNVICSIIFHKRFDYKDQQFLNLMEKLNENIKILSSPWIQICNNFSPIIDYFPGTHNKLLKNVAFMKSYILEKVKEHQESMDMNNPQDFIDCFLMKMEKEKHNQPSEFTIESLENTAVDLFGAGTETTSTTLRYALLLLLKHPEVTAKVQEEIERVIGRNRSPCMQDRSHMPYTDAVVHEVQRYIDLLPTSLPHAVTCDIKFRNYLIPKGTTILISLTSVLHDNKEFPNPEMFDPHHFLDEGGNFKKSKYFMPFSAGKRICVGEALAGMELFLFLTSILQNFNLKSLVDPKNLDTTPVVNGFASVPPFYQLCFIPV
T6 sequence (P08684 whole entry): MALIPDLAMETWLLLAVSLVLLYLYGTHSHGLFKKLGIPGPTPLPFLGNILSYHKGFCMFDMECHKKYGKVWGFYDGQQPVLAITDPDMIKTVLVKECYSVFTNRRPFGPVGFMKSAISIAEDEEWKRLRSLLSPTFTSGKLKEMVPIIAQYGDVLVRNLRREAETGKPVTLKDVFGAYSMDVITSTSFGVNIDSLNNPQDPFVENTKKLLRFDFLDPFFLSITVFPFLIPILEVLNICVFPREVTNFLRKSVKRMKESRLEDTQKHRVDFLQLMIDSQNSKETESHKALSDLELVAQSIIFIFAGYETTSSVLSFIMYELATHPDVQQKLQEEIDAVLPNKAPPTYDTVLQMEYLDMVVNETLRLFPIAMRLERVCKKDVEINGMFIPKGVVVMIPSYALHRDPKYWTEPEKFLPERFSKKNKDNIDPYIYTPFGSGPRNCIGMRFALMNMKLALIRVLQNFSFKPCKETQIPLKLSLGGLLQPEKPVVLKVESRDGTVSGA
T7 sequence (O60674 whole entry): as the sequence (O60674 whole entry V617F) above, with F617V counted along it

SMILES | IC50 [1] [nM] | IC50 [2, 12] [nM] | IC50 [3] [nM] | IC50 [4] [nM] | IC50 [5] [nM] | IC50 [6] [nM] | IC50 [7, 13] [nM] | IC50 [8] [nM] | IC50 [9] [nM] | microsomal CLint at 1 μM [10] [µL/min/mg] | microsomal CLint at 1 μM [11] [µL/min/mg] | IC50 ([2]; IC50 JAK1 (10 nM) (Km ATP), JAK1 10 nM, Km ATP) [nM] | IC50 [7, 14] [nM]
Cc1cnc(Nc2cnn(C3CCC(O)CC3)c2)nc1-c1ccc(C(=O)NCC#N)cc1 (stereo not drawn) [Example 132, N-(Cyanomethyl)-4-(2-((1-(4-hydroxycyclohexyl)-1H-pyrazol-4-yl)amino)-5-methylpyrimidin-4-yl)benzamide] | 1760 | 6.44 | 5930 | 10400 | 20.4 | 31500 | < 0.25 | 2.89 | 24500 |  |  |  | 
CC[C@@H](C#N)NC(=O)c1ccc(-c2nc(Nc3cnn(CCO)c3)ncc2Cl)cc1 [Example 167, (S)-4-(5-Chloro-2-((1-(2-hydroxyethyl)-1H-pyrazol-4-yl)amino)pyrimidin-4-yl)-N-(1-cyanopropyl)benzamide] | 37800 | 1.2 | 38100 | > 50000 | 2.64 | > 50000 | 4.4 |  | > 50000 | 14.4 | 7.06 |  | 
CC[C@@H](C#N)NC(=O)c1ccc(-c2nc(Nc3cnn(C(C)C(F)(F)F)c3)ncc2C)cc1 (stereo partly drawn) [Example 195, N—((S)-1-cyanopropyl)-4-(5-methyl-2-((1-(1,1,1-trifluoropropan-2-yl)-1H-pyrazol-4-yl)amino)pyrimidin-4-yl)benzamide] | 30700 | 3.61 | > 50000 | > 50000 | 5.42 | > 50000 | 26.4 | 61.1 | > 50000 |  |  |  | 
Cc1cnc(Nc2cnn(C3CCN(CC(F)F)CC3)c2)nc1-c1ccc(C(=O)NCC#N)cc1 [Example 19, N-(Cyanomethyl)-4-(2-((1-(1-(2,2-difluoroethyl)piperidin-4-yl)-1H-pyrazol-4-yl)amino)-5-methylpyrimidin-4-yl)benzamide] | > 50000 |  | > 50000 | > 50000 |  | > 50000 |  |  | > 50000 | 49.2 | 33.7 | 1.92 | 0.65
CC[C@@H](C#N)NC(=O)c1ccc(-c2nc(Nc3cn[nH]c3)ncc2Cl)cc1 [Example 185, (S)-4-(2-((1H-Pyrazol-4-yl)amino)-5-chloropyrimidin-4-yl)-N-(1-cyanopropyl)benzamide] | 2300 | 1.58 | 6040 | 7630 | 3.51 | 10900 | 15.2 |  | 10700 |  |  |  | 

Further lines, results first:

IC50 [1] [nM] | IC50 [2, 12] [nM] | IC50 [3] [nM] | IC50 [4] [nM] | IC50 [5] [nM] | IC50 [6] [nM] | IC50 [7, 13] [nM] | IC50 [8] [nM] | IC50 [9] [nM] | microsomal CLint at 1 μM [10] [µL/min/mg] | microsomal CLint at 1 μM [11] [µL/min/mg] | IC50 ([2]; IC50 JAK1 (10 nM) (Km ATP), JAK1 10 nM, Km ATP) [nM] | IC50 [7, 14] [nM] | SMILES
> 50000 | 91.2 | > 50000 | > 50000 | 218 | > 50000 | 110 | 186 | > 50000 |  | 8.92 |  |  | C[C@@H](C#N)NC(=O)c1ccc(-c2nc(Nc3cnn(C4CCN(C)CC4)c3)ncc2F)cc1 [Example 50, (S)—N-(1-cyanoethyl)-4-(5-fluoro-2-((1-(1-methylpiperidin-4-yl)-1H-pyrazol-4-yl)amino)pyrimidin-4-yl)benzamide]
> 50000 | 1.93 | > 50000 | > 50000 | 1.74 | > 50000 | 24.6 |  | > 50000 | 14.8 | 5.05 |  |  | CC[C@@H](C#N)NC(=O)c1ccc(-c2nc(Nc3cnn(CCO)c3)ncc2C)cc1 [Example 172, (S)—N-(1-cyanopropyl)-4-(2-((1-(2-hydroxyethyl)-1H-pyrazol-4-yl)amino)-5-methylpyrimidin-4-yl)benzamide]
> 50000 |  | > 50000 | > 50000 |  | > 50000 | 0.3 | 13.7 | > 50000 | < 9.6 | < 9.6 |  | 0.25 | CC(=O)N1CCC(n2cc(Nc3ncc(C)c(-c4ccc(C(=O)NCC#N)cc4)n3)cn2)CC1 [Example 20, 4-(2-((1-(1-Acetylpiperidin-4-yl)-1H-pyrazol-4-yl)amino)-5-methylpyrimidin-4-yl)-N-(cyanomethyl)benzamide]
